{"source": "patent EP0197013A1", "about": "“Substituted benzimidazoles for the manufacture of a medicament for treatment of intestinal inflammatory diseases” (Aktiebolaget Hässle, priority 1985, dated 1986)", "molecular_target": "T1, colon K^+-ATPase (Oryctolagus cuniculus, UniProt Q9TV52)", "T1 construct": "Apical brush-border membranes were prepared from rabbit descending colon epithelium; from tissue; host or cells: rabbit descending colon epithelium, apical brush-border membrane fraction (Percoll gradient)", "T1 sequence (Q9TV52 whole entry, other chains not shown)": "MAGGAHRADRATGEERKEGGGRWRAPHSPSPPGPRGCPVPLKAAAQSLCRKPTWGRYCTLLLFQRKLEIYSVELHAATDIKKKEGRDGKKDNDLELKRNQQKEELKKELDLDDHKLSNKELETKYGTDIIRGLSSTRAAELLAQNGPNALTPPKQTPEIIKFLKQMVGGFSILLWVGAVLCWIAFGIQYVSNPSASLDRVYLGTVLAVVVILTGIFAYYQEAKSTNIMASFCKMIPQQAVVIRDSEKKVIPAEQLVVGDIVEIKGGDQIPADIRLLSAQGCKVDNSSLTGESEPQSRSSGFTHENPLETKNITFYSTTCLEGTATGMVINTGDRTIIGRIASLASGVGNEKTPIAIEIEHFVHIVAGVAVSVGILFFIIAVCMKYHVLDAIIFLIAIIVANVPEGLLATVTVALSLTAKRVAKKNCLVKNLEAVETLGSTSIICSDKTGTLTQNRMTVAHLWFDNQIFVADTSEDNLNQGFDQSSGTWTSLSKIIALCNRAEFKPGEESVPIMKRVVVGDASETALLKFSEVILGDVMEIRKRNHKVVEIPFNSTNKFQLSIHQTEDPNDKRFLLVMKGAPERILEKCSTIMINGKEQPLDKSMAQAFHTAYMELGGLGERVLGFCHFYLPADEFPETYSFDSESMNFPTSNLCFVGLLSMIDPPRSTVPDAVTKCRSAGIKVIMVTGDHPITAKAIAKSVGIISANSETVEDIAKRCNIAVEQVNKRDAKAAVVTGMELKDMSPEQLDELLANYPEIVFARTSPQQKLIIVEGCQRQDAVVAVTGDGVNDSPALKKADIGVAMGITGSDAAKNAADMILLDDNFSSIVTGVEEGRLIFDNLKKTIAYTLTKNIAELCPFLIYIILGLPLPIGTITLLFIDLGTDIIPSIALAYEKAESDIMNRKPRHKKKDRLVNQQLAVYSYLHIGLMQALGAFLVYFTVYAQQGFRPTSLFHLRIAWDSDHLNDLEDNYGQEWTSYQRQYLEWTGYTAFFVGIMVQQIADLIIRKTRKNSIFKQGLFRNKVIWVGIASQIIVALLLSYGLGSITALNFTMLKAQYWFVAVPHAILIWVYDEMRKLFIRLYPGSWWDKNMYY", "assay": "Inhibition of colon K+-ATPase by acid decomposed omeprazole (Pi liberated from ATP, apical brush-border membranes of descending colon)", "assay_type": "biochemical, rabbit", "design": "activity of the colonic K^+-ATPase enzyme: dose or concentration left out as unconfirmed", "experimental": "In order to evaluate the inhibitory effect on colonic K^+-ATPase of the substituted benzimidazoles with the general formula I, we have tested one compound, namely omeprazole on an enzyme preparation from the descending colon of the rabbit (cf. below).\nIn the case of omeprazole the most efficient way to form the active degradation products is to decompose it in acid solution. Thus, omeprazole was decomposed in acid before it was added to the enzyme.\nIn order to isolate and characterize the ouabain insensitive potassium- stimulated ATPase from rabbit descending colon the following preparation was made.\nApical brush-border membranes were prepared from rabbit descending colon epithelium, by the method of Gustin M.C., and Goodman D.B.P., J. Biol. Chem. 256, 10651-10656 (1981), with some modifications.\nTwo albino male rabbits, weighing 2-3 kg, were killed by injection of mebumal into the ear vein. A section of colon, 30-35 cm in length, measured from rectum, was removed, rinsed free of its content with icecold 0.15 M NaCl and everted over a glassrod. The tissue was then divided in two pieces. These everted segments were tied at one end, filled with an icecold buffer containing 30 mM NaCl, 5mM Na3EDTA and 8 mM Hepes/Tris pH 7.6, using a 20 ml syringe without a needle, until they became distended, at which point the other end was tied. The intestines were transferred to a 500 ml centrifuge tube containing the same cold pH 7.6 buffer. The tube was placed in an icebox, which was shaken for 2 hours at 260 osc./min. Then the incubation medium was filtered through a nylon net of 200 µm mesh, to remove debris.\nSedimentation of epithelial cells was performed by centrifugation at 500xg for 10 minutes at 4°C, in a Beckman J2-21 centrifuge. The pelleted cells were resuspended in 250 ml of a solution containing 1mM Na3EDTA, adjusted to pH 8.3 with HC1 at 4°C, just before use. The cells were then disrupted, by a 28 second homogenization in a Waring Blendor. The resulting homogenate was centrifuged for 10 minutes at 4°C with a centrifugal force of 750xg in a Beckman J2-21 centrifuge with a JA-17 rotor, in order to sediment brush-borders. Pellets were combined, resuspended in 40 ml of the medium containing 1mM Na3EDTA and recentrifuged as described above. The brush-border pellet (P2) was resuspended in 33.3 ml of the same medium, 2.7 ml density gradient medium (Percoll, Pharmacia) was added by mixing. The Percoll medium was allowed to generate a density gradient during 22 minutes at 40 OOOxg in a Beckman J2-21 centrifuge, in which the membranes sedimented into bands. Nine fractions (Gl-G9) of 4 ml each, were carefully removed from the gradient with a Pasteur-pipette. The fractions were subjected to centrifugation in a Kontron TGA-65 centrifuge with a TST 60 swing-out rotor at 50 000 rpm for 45 minutes, to sediment the Percoll. The material collected on the top of the Percoll pellet was homogenized by a glass-teflon homogenizer with 5-10 up-down strokes at about 1500 rpm.\nATPase activity was determined as the amount of Pi (free phosphate) liberated from ATP by the enzyme per unit of time.\nThe assay medium contained 2mM ATP, 2mM MgCl2, 18.4 mM Pipes/Tris pH 7.4 and membrane protein in the presence or absence of 10 mM KC1 in a final volume of 1 ml. In some experiments, 10^-5 M of the specific Na^+,K^+-ATPase inhibitor ouabain was present. The enzyme Na^+,K^+-ATPase is responsible for the active transport of Na^+ out from the cell into the plasma as well as for the transport of K^+ into the cell from the plasma. Unless otherwise mentioned, the preparation was preincubated with ouabain on ice for 10 minutes before start of the reaction, which was initiated with ATP, mixed and incubated for suitable time at 37°C. The reaction was stopped by the addition of 1 ml icecold 12 per cent perchloric acid, containing 3.6 per cent ammoniummolybdate. […]", "data": [{"molecule": "COc1ccc2[nH]c([S+]([O-])Cc3ncc(C)c(OC)c3C)nc2c1", "note": "(stereo not drawn) [omeprazole]", "values": [{"measurement": "remaining activity at 1 µM", "setting": "Initial concentration of omeprazole in the break-down mixture 1.0 µM, omeprazole decomposed at pH 5.0, 120 minutes, 37°C, membranes incubated 10 minutes at 37°C, read-out: Remaining enzyme activity % Mean value ± S.D.", "result": "100 ± 5.9", "unit": "%"}, {"measurement": "remaining activity at 2.5 µM", "setting": "Initial concentration of omeprazole in the break-down mixture 2.5 µM, omeprazole decomposed at pH 5.0, 120 minutes, 37°C, membranes incubated 10 minutes at 37°C, read-out: Remaining enzyme activity % Mean value ± S.D.", "result": "72.4 ± 6", "unit": "%"}, {"measurement": "remaining activity at 5 µM", "setting": "Initial concentration of omeprazole in the break-down mixture 5.0 µM, omeprazole decomposed at pH 5.0, 120 minutes, 37°C, membranes incubated 10 minutes at 37°C, read-out: Remaining enzyme activity % Mean value ± S.D.", "result": "31.9 ± 6.7", "unit": "%"}, {"measurement": "remaining activity at 7.5 µM", "setting": "Initial concentration of omeprazole in the break-down mixture 7.5 µM, omeprazole decomposed at pH 5.0, 120 minutes, 37°C, membranes incubated 10 minutes at 37°C, read-out: Remaining enzyme activity % Mean value ± S.D.", "result": "18.6 ± 5.5", "unit": "%"}, {"measurement": "remaining activity at 10 µM", "setting": "Initial concentration of omeprazole in the break-down mixture 10.0 µM, omeprazole decomposed at pH 5.0, 120 minutes, 37°C, membranes incubated 10 minutes at 37°C, read-out: Remaining enzyme activity % Mean value ± S.D.", "result": "5.2 ± 3.2", "unit": "%"}, {"measurement": "activity of the colonic K^+-ATPase enzyme", "setting": "mixture (acid decomposed omeprazole)", "result": "almost completely inhibits"}]}]}
